Calls of active or inactive are those of the source. The calls are words filed in the database; no cut-off is given here.
Experiments:
[1] = molecular target: T1, Vitamin D3 receptor (Homo sapiens) (UniProt P11473); experiment: Binding affinity to full-length VDR (unknown origin) at 1 uM by fluorescence polarization assay relative to control
T1 sequence (whole entry): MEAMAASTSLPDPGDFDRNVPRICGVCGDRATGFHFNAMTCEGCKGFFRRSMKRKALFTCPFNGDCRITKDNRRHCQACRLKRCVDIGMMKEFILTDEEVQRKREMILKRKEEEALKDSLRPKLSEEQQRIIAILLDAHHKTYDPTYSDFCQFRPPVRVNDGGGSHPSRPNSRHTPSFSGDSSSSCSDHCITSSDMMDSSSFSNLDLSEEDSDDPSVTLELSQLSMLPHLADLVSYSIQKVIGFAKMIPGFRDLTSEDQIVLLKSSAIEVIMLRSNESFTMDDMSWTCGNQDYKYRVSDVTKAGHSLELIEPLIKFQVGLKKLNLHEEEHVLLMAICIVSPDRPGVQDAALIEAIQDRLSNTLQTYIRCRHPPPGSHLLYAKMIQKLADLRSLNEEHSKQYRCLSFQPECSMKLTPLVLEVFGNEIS

LX-2 [2] = experiment: Inhibition of HSC activation in TGF-beta1-treated human LX2 cells harboring VDR siRNA assessed as decrease in collagen-I level at 0.5 uM incubated for 24 hrs by Western blot analysis; type: functional, cell-based
LX-2 [3] = experiment: Inhibition of HSC activation in TGF-beta1-treated human LX2 cells harboring VDR siRNA assessed as decrease in alpha-SMA level at 0.5 uM incubated for 24 hrs by Western blot analysis; type: functional, cell-based
LX-2 [4] = experiment: Inhibition of HSC activation in TGF-beta1-treated human LX2 cells assessed as decrease in collagen-I level at 0.5 uM incubated for 24 hrs by Western blot analysis; type: functional, cell-based
LX-2 [5] = experiment: Inhibition of HSC activation in TGF-beta1-treated human LX2 cells assessed as decrease in alpha-SMA level at 0.5 uM incubated for 24 hrs by Western blot analysis; type: functional, cell-based
LX-2 [6] = experiment: Inhibition of HSC activation in TGF-beta1-treated human LX2 cells assessed as decrease in ACTA2 mRNA level at 0.5 uM incubated for 24 hrs by qPCR analysis; type: functional, cell-based
LX-2 [7] = experiment: Inhibition of HSC activation in TGF-beta1-treated human LX2 cells assessed as decrease in COL1A1 mRNA level at 0.5 uM incubated for 24 hrs by qPCR analysis; type: functional, cell-based

| SMILES | Activity [1] | Activity ([1]; filed as agonist) | also measured |
| --- | --- | --- | --- |
| CCC(O)(CC)CCCOc1ccc(C#CC2=C[C@@H](O)[C@@H](O)[C@H](O)C2)c2c1CCCC2 | inactive | – | – |
| CC(C)(O)CCOc1cccc2c1CCCC2OC(=O)C1=C[C@@H](O)[C@@H](O)[C@H](O)C1 (some centres undefined) | – | 45% | – |
| CCCCC(O)(CCCC)CCCOc1cccc2c1CCCC2OC(=O)C1=C[C@@H](O)[C@@H](O)[C@H](O)C1 (some centres undefined) | 34% | – | – |
| CC(C)(O)CCCOc1ccc(C#CC2=C[C@@H](O)[C@@H](O)[C@H](O)C2)c2c1CCCC2 | 15% | – | – |
| CC(C)(O)CCCn1ccc2c(/C=C/C3=C[C@@H](O)[C@@H](O)[C@H](O)C3)cccc21 | – | 71% | – |
| C=C1/C(=C\C=C2/CCC[C@]3(C)[C@@H]([C@H](C)/C=C/[C@@H](O)C4CC4)CC[C@@H]23)C[C@@H](O)C[C@@H]1O | – | 100% | inhibition (LX-2 [2]): inactive; inhibition (LX-2 [3]): inactive |
| CC(C)(O)CCCCOc1ccc(/C=C/C2=C[C@@H](O)[C@@H](O)[C@H](O)C2)c2c1CCCC2 | 21% | – | – |
| O=C(OC1CCCc2c(OCCCN3CCOCC3)cccc21)C1=C[C@@H](O)[C@@H](O)[C@H](O)C1 (some centres undefined) | 50% | – | inhibition (LX-2 [4]): inactive; inhibition (LX-2 [5]): inactive; inhibition (LX-2 [6]): inactive; inhibition (LX-2 [7]): inactive |
| CC(C)(O)CCCOc1cccc(COC(=O)C2=C[C@@H](O)[C@@H](O)[C@H](O)C2)c1 | – | 49% | – |
| CCC(O)(CC)COc1ccc(/C=C/C2=C[C@@H](O)[C@@H](O)[C@H](O)C2)c2c1CCCC2 | – | 61% | – |
| CCCC(OC(=O)C1=C[C@@H](O)[C@@H](O)[C@H](O)C1)c1cccc(OCCCC(C)(C)O)c1 (some centres undefined) | – | 77% | inhibition (LX-2 [4]): Active; inhibition (LX-2 [5]): Active; inhibition (LX-2 [6]): Active; inhibition (LX-2 [7]): Active |
| CC(C)(O)CCCOc1cccc2c1CCCC2OC(=O)C1=C[C@@H](O)[C@@H](O)[C@H](O)C1 (some centres undefined) | – | 69% | – |
| CC(C)(O)CCOc1ccc(C#CC2=C[C@@H](O)[C@@H](O)[C@H](O)C2)c2c1CCCC2 | – | 56% | – |
| O=C(COc1ccc(/C=C/C2=C[C@@H](O)[C@@H](O)[C@H](O)C2)c2c1CCCC2)N1CCOCC1 | – | 45% | – |
| CC(C)(O)CCOc1ccc(/C=C/C2=C[C@@H](O)[C@@H](O)[C@H](O)C2)c2c1CCCC2 | – | 55% | – |
| CC(C)c1ccc(C(=O)COc2ccc(/C=C/C3=C[C@@H](O)[C@@H](O)[C@H](O)C3)c3c2CCCC3)cc1 | – | 76% | – |
| CCN(CC)CCCOc1cccc2c1CCCC2OC(=O)C1=C[C@@H](O)[C@@H](O)[C@H](O)C1 (some centres undefined) | – | 64% | – |
| OCc1ccc(/C=C/c2ccc(OCCCC(F)(F)F)cc2)cc1CO | – | 51% | – |
| OC(COc1ccc(/C=C/C2=C[C@@H](O)[C@@H](O)[C@H](O)C2)c2c1CCCC2)c1ccccc1 (some centres undefined) | 77% | – | inhibition (LX-2 [4]): inactive; inhibition (LX-2 [5]): inactive; inhibition (LX-2 [6]): inactive; inhibition (LX-2 [7]): inactive |
| CCC(O)(CC)CCCCOc1ccc(C#CC2=C[C@@H](O)[C@@H](O)[C@H](O)C2)c2c1CCCC2 | – | 49% | – |
